This note sets out measurements from patent publication US11826351B2, “Compounds useful as kinase inhibitors” (Loxo Oncology, Inc., priority 2015, dated 2023).

Experiment [1] has as its target T1, Recombinant BTK^WT kinase (Homo sapiens, UniProt Q06187).
T1 construct: purchased Invitrogen
As to the kind of experiment: BTK WT binding affinity (LanthaScreen TR-FRET). The note with it: Kinase Tracer 236, 5 h incubation. Summed up:
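Tracer-displacement TR-FRET: 2.5 nM recombinant BTK^WT, 2 nM Eu anti-His antibody and 15 nM Kinase Tracer 236 incubated with varying inhibitor concentrations for 5 h in Kinase Buffer A. Signal read at 340 nm excitation, 615/665 nm emission; IC50 from variable-slope log[inhibitor]–response fit.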
In general terms: Time-resolved FRET reads energy transfer from a long-lived donor to a nearby acceptor.

For experiment [2], the target named is T2, Recombinant BTK^C481S kinase (Homo sapiens, UniProt Q06187, C481S).
T2 construct: purchased SignalChem
T2 sequence (Q06187 whole entry C481S): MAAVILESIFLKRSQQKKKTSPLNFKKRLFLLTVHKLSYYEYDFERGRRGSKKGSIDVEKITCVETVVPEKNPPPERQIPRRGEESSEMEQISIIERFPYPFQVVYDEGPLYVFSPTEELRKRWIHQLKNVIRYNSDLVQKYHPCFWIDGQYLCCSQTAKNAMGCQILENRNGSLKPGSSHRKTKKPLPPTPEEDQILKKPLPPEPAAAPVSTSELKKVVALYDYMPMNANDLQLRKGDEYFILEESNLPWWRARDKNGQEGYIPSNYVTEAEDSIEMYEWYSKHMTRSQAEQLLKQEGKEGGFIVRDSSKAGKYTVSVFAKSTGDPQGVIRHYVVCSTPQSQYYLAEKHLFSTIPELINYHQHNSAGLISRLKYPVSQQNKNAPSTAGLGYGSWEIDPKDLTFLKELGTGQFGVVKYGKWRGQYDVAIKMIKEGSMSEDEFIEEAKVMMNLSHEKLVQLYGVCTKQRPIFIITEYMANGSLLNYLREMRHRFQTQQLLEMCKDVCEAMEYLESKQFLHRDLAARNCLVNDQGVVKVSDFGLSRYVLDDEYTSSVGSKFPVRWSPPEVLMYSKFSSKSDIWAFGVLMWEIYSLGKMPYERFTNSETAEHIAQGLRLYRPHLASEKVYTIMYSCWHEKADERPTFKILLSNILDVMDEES
Description: BTK C481S binding affinity (LanthaScreen TR-FRET). The note with it: Kinase Tracer 236, 5 h incubation. The gist of the method:
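BTK C481S tracer-displacement TR-FRET: 5 nM His-tagged kinase, 2 nM Eu anti-His antibody and 30 nM Kinase Tracer 236 incubated with titrated inhibitor for 5 h in Kinase Buffer A. Read at 340 nm excitation, 615/665 nm emission; IC50 from variable-slope log[inhibitor]–response fit.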

The target of a further experiment is T3, Recombinant EGFR (Homo sapiens, UniProt P00533).
T3 construct: purchased Invitrogen
T3 sequence (P00533 25-1210): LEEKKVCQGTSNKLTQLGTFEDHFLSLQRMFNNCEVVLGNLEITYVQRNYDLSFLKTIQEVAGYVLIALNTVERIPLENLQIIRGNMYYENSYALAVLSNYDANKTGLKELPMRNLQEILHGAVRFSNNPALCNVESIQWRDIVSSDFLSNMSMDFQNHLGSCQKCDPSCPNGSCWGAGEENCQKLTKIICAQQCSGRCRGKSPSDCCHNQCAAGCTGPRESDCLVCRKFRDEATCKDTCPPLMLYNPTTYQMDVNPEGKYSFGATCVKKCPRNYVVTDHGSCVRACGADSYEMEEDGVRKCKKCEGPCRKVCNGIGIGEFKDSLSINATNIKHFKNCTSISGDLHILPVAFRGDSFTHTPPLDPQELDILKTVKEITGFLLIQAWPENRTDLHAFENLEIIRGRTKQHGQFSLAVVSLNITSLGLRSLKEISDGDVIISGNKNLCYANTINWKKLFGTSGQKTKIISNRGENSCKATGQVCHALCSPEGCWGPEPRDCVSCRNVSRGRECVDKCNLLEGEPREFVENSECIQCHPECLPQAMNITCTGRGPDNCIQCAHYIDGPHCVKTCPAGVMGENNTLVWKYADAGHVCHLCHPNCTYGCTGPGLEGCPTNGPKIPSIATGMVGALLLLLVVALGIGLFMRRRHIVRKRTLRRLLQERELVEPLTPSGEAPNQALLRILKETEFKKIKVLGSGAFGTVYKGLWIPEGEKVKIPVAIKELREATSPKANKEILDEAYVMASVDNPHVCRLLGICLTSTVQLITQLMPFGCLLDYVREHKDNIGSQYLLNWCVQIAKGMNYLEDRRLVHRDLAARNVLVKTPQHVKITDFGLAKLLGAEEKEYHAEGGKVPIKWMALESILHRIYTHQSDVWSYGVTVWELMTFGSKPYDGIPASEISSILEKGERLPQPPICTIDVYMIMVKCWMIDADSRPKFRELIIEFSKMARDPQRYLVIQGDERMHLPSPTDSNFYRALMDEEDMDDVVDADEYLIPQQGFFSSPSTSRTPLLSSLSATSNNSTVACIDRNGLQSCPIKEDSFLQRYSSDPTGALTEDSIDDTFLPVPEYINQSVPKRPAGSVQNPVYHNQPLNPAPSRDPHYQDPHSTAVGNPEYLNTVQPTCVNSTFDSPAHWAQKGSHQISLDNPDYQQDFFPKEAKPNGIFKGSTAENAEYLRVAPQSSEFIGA
As to the kind of experiment: EGFR binding affinity (LanthaScreen TR-FRET). The note with it: Kinase Tracer 199, 5 h incubation. The gist of the method:
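TR-FRET binding (LanthaScreen) with recombinant EGFR; signal measured across a compound concentration range. IC50 obtained by fitting RFU against log[inhibitor] to a variable-slope model.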

The subject of experiment [3] is OCI-Ly10 human DLBCL cells. As to the kind of experiment: OCI-Ly10 anti-proliferative activity (Resazurin). The experiment is classed as cell-based. The note with it: OCI-Ly10 cells, 72 h compound treatment, Resazurin, read-out: Proliferation Assay OCI-Ly10-20% FBS. Summed up: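 OCI-Ly10 human DLBCL cells, whose growth depends on NFκB signalling, were seeded at 7.5×10^3 cells per well in 96-well plates with a range of compound concentrations and kept at 37° C for 72 h. Resazurin was then added, and after 5 h fluorescence was read at 590 nm.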

Like-named read-outs stand apart in the source and are kept apart here. Some results are limits rather than exact numbers.

T1 sequence (Q06187 whole entry): as the sequence (Q06187 whole entry C481S) above, with S481C counted along it

Regarding `COc1ccccc1C(=O)NCc1ccc(-c2nn(-c3cccc(F)c3)c(N)c2C(N)=O)cc1` [Example 32, 5-amino-1-(3-fluorophenyl)-3-[4-[[(2-methoxybenzoyl)amino]methyl]phenyl]pyrazole-4-carboxamide], the IC50 is below 0.01 µM in experiment [1]; below 0.01 µM in experiment [2]; 0.1 to 1 µM on Recombinant EGFR; 0.01 to 0.1 µM in experiment [3] (Homo sapiens, OCI-Ly10, 72 h).

For `COc1ccccc1C(=O)NCc1cc(F)c(-c2nn(C3CCCC3)c(N)c2C(N)=O)cc1F` [Example 156, 5-amino-1-cyclopentyl-3-[2,5-difluoro-4-[[(2-methoxybenzoyl)amino]methyl]phenyl]pyrazole-4-carboxamide], the IC50 is below 0.01 µM in experiment [1]; below 0.01 µM in experiment [2]; above 10 µM at Recombinant EGFR; 0.01 to 0.1 µM in experiment [3] (Homo sapiens, OCI-Ly10, 72 h).

Consider `COc1ccc(F)cc1C(=O)NCc1ccc(-c2nn(C(C)(C)C(F)(F)F)c(N)c2C(N)=O)cc1` [Example 189, 5-amino-3-[4-[[(5-fluoro-2-methoxy-benzoyl)amino]methyl]phenyl]-1-(2,2,2-trifluoro-1,1-dimethyl-ethyl)pyrazole-4-carboxamide], for which the IC50 in experiment [1] is below 0.01 µM; in experiment [2], below 0.01 µM; on Recombinant EGFR, 1 to 10 µM; in experiment [3] (Homo sapiens, OCI-Ly10, 72 h), 0.01 to 0.1 µM.

On to `COc1ccccc1C(=O)NCc1ccc(-c2nn(C3CCC(C)(O)CC3)c(N)c2C(N)=O)cc1` (single isomer, unassigned) [Example 33, 5-Amino-1-(4-hydroxy-4-methyl-cyclohexyl)-3-[4-[[(2-methoxybenzoyl)amino]methyl]phenyl]pyrazole-4-carboxamide], for which the IC50 is below 0.01 µM in experiment [1]; below 0.01 µM in experiment [2]; 0.1 to 1 µM at Recombinant EGFR; 0.01 to 0.1 µM in experiment [3] (Homo sapiens, OCI-Ly10, 72 h).

As for `COc1ccccc1C(=O)NCc1ccc(-c2nn(CC3CCCCC3)c(N)c2C(N)=O)cc1` [Example 17, 5-amino-1-(cyclohexylmethyl)-3-[4-[[(2-methoxybenzoyl)amino]methyl]phenyl]pyrazole-4-carboxamide], the IC50 in experiment [1] was below 0.01 µM; in experiment [2] it was below 0.01 µM; on Recombinant EGFR, 0.1 to 1 µM; in experiment [3] (Homo sapiens, OCI-Ly10, 72 h) it was 0.01 to 0.1 µM.

For the compound `COc1ccccc1C(=O)NCc1ccc(-c2nn(C3CCC(C(=O)N(C)C)CC3)c(N)c2C(N)=O)cc1` (single isomer, unassigned) [Example 57b, 5-amino-1-[4-(dimethylcarbamoyl)cyclohexyl]-3-[4-[[(2-methoxybenzoyl)amino]methyl]phenyl]pyrazole-4-carboxamide], the IC50 is below 0.01 µM in experiment [1], below 0.01 µM in experiment [2], 0.1 to 1 µM at Recombinant EGFR and 0.1 to 1 µM in experiment [3].

As to `COc1ccccc1C(=O)NCc1ccc(-c2nn([C@H]3CC[C@H](F)C3)c(N)c2C(N)=O)cc1` (relative stereo) [Example 41, 5-amino-1-[(1S*,3S*)-3-fluorocyclopentyl]-3-[4-[[(2-methoxybenzoyl)amino]methyl]phenyl]pyrazole-4-carboxamide], the IC50 in experiment [1] was below 0.01 µM; in experiment [2], below 0.01 µM; on Recombinant EGFR it was 0.1 to 1 µM; in experiment [3] (Homo sapiens, OCI-Ly10, 72 h) it was 0.01 to 0.1 µM.

On to `COc1ccccc1C(=O)NCc1ccc(-c2nn(C(C)(C)C)c(N)c2C(N)=O)cc1` [Example 3, 5-amino-1-tert-butyl-3-[4-[[(2-methoxybenzoyl)amino]methyl]phenyl]pyrazole-4-carboxamide], for which the IC50 was below 0.01 µM in experiment [1]; below 0.01 µM in experiment [2]; 0.1 to 1 µM at Recombinant EGFR; 0.01 to 0.1 µM in experiment [3] (Homo sapiens, OCI-Ly10, 72 h).

In the case of `COc1ccccc1C(=O)NCc1ccc(-c2nn(C3CCC(F)(F)CC3)c(N)c2C(N)=O)cc1` [Example 68, 5-amino-1-(4,4-difluorocyclohexyl)-3-[4-[[(2-methoxybenzoyl)amino]methyl]phenyl]pyrazole-4-carboxamide], the IC50 is below 0.01 µM in experiment [1]; below 0.01 µM in experiment [2]; 0.1 to 1 µM on Recombinant EGFR; 0.01 to 0.1 µM in experiment [3] (Homo sapiens, OCI-Ly10, 72 h).

Turning to `COc1ccccc1C(=O)NCc1ccc(-c2nn(C3CCCC(O)C3)c(N)c2C(N)=O)cc1` (stereo not drawn) [Example 48, 5-amino-1-(3-hydroxycyclohexyl)-3-[4-[[(2-methoxybenzoyl)amino]methyl]phenyl]pyrazole-4-carboxamide], the IC50 is below 0.01 µM in experiment [1]; below 0.01 µM in experiment [2]; 0.1 to 1 µM at Recombinant EGFR; 0.1 to 1 µM in experiment [3] (Homo sapiens, OCI-Ly10, 72 h).

For `COc1ccccc1C(=O)NCc1ccc(-c2nn(C3CCCOC3)c(N)c2C(N)=O)c(F)c1` (stereo not drawn) [Example 102, 5-amino-3-[2-fluoro-4-[[(2-methoxybenzoyl)amino]methyl]phenyl]-1-tetrahydropyran-3-yl-pyrazole-4-carboxamide], the IC50 is below 0.01 µM in experiment [1]; below 0.01 µM in experiment [2]; above 10 µM on Recombinant EGFR; 0.1 to 1 µM in experiment [3] (Homo sapiens, OCI-Ly10, 72 h).

On to `COc1ccccc1C(=O)NCc1ccc(-c2nn(CC(O)C(C)(C)C)c(N)c2C(N)=O)cc1` (stereo not drawn) [Example 14, 5-Amino-1-(2-hydroxy-3,3-dimethyl-butyl)-3-[4-[[(2-methoxybenzoyl)amino]methyl]phenyl]pyrazole-4-carboxamide], for which the IC50 in experiment [1] lay in the range of 0.01 to 0.1 µM; in experiment [2], 0.01 to 0.1 µM; on Recombinant EGFR, 1 to 10 µM; in experiment [3] (Homo sapiens, OCI-Ly10, 72 h), 0.1 to 1 µM.

For the compound `COc1ccccc1C(=O)NCc1cc(-c2nn(C3CCCC3)c(N)c2C(N)=O)ccc1F` [Example 118, 5-amino-1-cyclopentyl-3-[4-fluoro-3-[[(2-methoxybenzoyl)amino]methyl]phenyl]pyrazole-4-carboxamide], the IC50 was in the range of 0.1 to 1 µM in experiment [1]; 0.01 to 0.1 µM in experiment [2]; 1 to 10 µM on Recombinant EGFR; 1 to 10 µM in experiment [3] (Homo sapiens, OCI-Ly10, 72 h).

For the compound `COc1ccccc1C(=O)NCc1ccc(-c2nn(C3CN(C)CC3(F)F)c(N)c2C(N)=O)cc1F` (stereo not drawn) [Example 166, 5-amino-1-(4,4-difluoro-1-methyl-pyrrolidin-3-yl)-3-[3-fluoro-4-[[(2-methoxybenzoyl)amino]methyl]phenyl]pyrazole-4-carboxamide], the IC50 in experiment [1] is 0.01 to 0.1 µM; in experiment [2], below 0.01 µM; at Recombinant EGFR, 1 to 10 µM; in experiment [3] (Homo sapiens, OCI-Ly10, 72 h), 0.01 to 0.1 µM.

As for `COc1ccccc1C(=O)NCc1ccc(-c2nn(C3Cc4ccccc4C3)c(N)c2C(N)=O)cc1` [Example 52, 5-amino-1-indan-2-yl-3-[4-[[(2-methoxybenzoyl)amino]methyl]phenyl]pyrazole-4-carboxamide], the IC50 in experiment [1] was below 0.01 µM; in experiment [2] it was below 0.01 µM; at Recombinant EGFR it was 0.1 to 1 µM; in experiment [3] (Homo sapiens, OCI-Ly10, 72 h), 0.01 to 0.1 µM.

`CCOC(=O)C1CCCC(n2nc(-c3ccc(CNC(=O)c4ccccc4OC)cc3)c(C(N)=O)c2N)C1` (single isomer, unassigned) [Example 58, ethyl 3-[5-amino-4-carbamoyl-3-[4-[[(2-methoxybenzoyl)amino]methyl]phenyl]pyrazol-1-yl]cyclohexanecarboxylate]: the IC50 in experiment [1] was below 0.01 µM; in experiment [2], below 0.01 µM; on Recombinant EGFR, 1 to 10 µM; in experiment [3] (Homo sapiens, OCI-Ly10, 72 h), 0.01 to 0.1 µM.

Turning to `COc1ccccc1C(=O)NCc1ccc(-c2nn(CC(F)(F)F)c(N)c2C(N)=O)cc1` [Example 21, 5-Amino-3-[4-[[(2-methoxybenzoyl)amino]methyl]phenyl]-1-(2,2,2-trifluoroethyl)pyrazole-4-carboxamide], the IC50 in experiment [1] is below 0.01 µM; in experiment [2] it was below 0.01 µM; at Recombinant EGFR it was 0.1 to 1 µM; in experiment [3] (Homo sapiens, OCI-Ly10, 72 h), 0.1 to 1 µM.

In the case of `COc1ccccc1C(=O)NCc1ccc(-c2nn(C3CCC(=O)C3)c(N)c2C(N)=O)cc1` (stereo not drawn) [Example 13, 5-Amino-3-[4-[[(2-methoxybenzoyl)amino]methyl]phenyl]-1-(3-oxocyclopentyl)pyrazole-4-carboxamide], the IC50 is below 0.01 µM in experiment [1]; below 0.01 µM in experiment [2]; 1 to 10 µM at Recombinant EGFR; 0.1 to 1 µM in experiment [3] (Homo sapiens, OCI-Ly10, 72 h).

`CCNc1c(C(N)=O)c(-c2ccc(CNC(=O)c3ccccc3OC)cc2)nn1C1CCCC1` [Example 73, 1-cyclopentyl-5-(ethylamino)-3-[4-[[(2-methoxybenzoyl)amino]methyl]phenyl]pyrazole-4-carboxamide]: the IC50 in experiment [1] is below 0.01 µM; in experiment [2] it was below 0.01 µM; on Recombinant EGFR, 0.1 to 1 µM; in experiment [3] (Homo sapiens, OCI-Ly10, 72 h) it was 0.01 to 0.1 µM.

For `COc1ccc(F)cc1C(=O)NCc1ccc(-c2nn(C3CCCC3)c(N)c2C(N)=O)c(F)c1F` [Example 154, 5-amino-1-cyclopentyl-3-[2,3-difluoro-4-[[(5-fluoro-2-methoxy-benzoyl)amino]methyl]phenyl]pyrazole-4-carboxamide], the IC50 in experiment [1] is below 0.01 µM; in experiment [2], below 0.01 µM; on Recombinant EGFR it was above 10 µM; in experiment [3] (Homo sapiens, OCI-Ly10, 72 h), 0.01 to 0.1 µM.

On to `COc1ccc(F)cc1C(=O)NCc1ccc(-c2nn(C3CCOC3)c(N)c2C(N)=O)c(F)c1F` (stereo not drawn) [Example 182, 5-amino-3-[2,3-difluoro-4-[[(5-fluoro-2-methoxy-benzoyl)amino]methyl]phenyl]-1-tetrahydrofuran-3-yl-pyrazole-4-carboxamide], for which the IC50 in experiment [1] was 0.01 to 0.1 µM; in experiment [2], below 0.01 µM; on Recombinant EGFR, 1 to 10 µM; in experiment [3] (Homo sapiens, OCI-Ly10, 72 h) it was 0.1 to 1 µM.
